Laboratory results: paper PMC8478282, “Recombinant Peptide Mimetic NanoLuc Tracer for Sensitive Immunodetection of Mycophenolic Acid” (Analytical Chemistry, 2021)
Entries after “also recorded” stand apart in the source; their conditions may differ. Bridges are numbered along the chain shown (N, C = ends). Where no end group is shown, it is not given here.

Tests used:
[1] = Biosensor analysis of blood samples of patients and healthy controls; assay type: in vivo, human; conditions: free MPA
Method: (§1) To detect MPA with the A2-NanoLuc fusion protein, a bead-based assay was carried out on a black microtiter well plate by immobilizing the biotinylated anti-MPA onto streptavidin-coated magnetic beads (Figure 1). Briefly, the wells were first blocked with assay buffer (SuperBlock with 0.05% Tween-20) for 1 h. Then, 60 μL of 5 μg mL^–1 biotinylated anti-MPA in assay buffer and 20 μL of streptavidin beads (1:50 dilution from the stock) were added to the wells and incubated for 30 min at RT. After washing three times with PBST, 60 μL of a solution containing different concentrations of MPA and 77 μg mL^–1 of the A2-NanoLuc in assay buffer was added to the wells and incubated 30 min at RT. Once the beads were washed, 60 μL of NanoGLO substrate in PBS were added and bioluminescence was measured after a 2 min incubation at 470 nm with a bandwidth of 80 nm using a CLARIOstar microplate reader.
(§2) solution as described before.
(§3) (OTA) Fab fragment on reference surface (flow channel 1). As running buffer, 1× PBS-P
(§4) After dissociation phase of 5 min, regeneration
followed by stabilization period of 60s. All samples were analyzed in replicates. The result s were
for MPAG, Acyl-MPAG and MPA respectively. The rt were reproducible between runs. Fig ure
The three metabolites were
curves was >0.99 for all compounds tested.
and centrifuged at 12,045 g for 30 min.
samples and vortexed for 5 minutes at 1000 rpm. […]

[2] = system: anti-MPA; test: Bead-based competitive phage immunoassay with clone A2; assay type: binding; conditions: Amplex UltraRed fluorescence, n = 3
Method: (§5) Briefly, black microtiter plates were blocked with 280 μL of assay buffer for 1 h at RT and subsequently washed three times with PBS. Then, the biotinylated anti-MPA (1.2 μg mL^–1) and neutravidin-coated magnetic beads (125 μg mL^–1) functionalized as described before,[18] were added to the wells in the assay buffer (total volume 260 μL per well), and incubated for 30 min at RT. After washing the beads using a plate washer with a magnetic support, the phage clone (10^11 pfu mL^–1) and increasing concentrations of free MPA were added to the wells (in assay buffer, 60 μL per well) and incubated for 30 min at RT. The beads were washed again to remove the excess, followed by incubation with HRP-conjugated anti-M13 antibody (1:5000 dilution in assay buffer; 80 μL per well) for 30 min at RT. Finally, after washing, 80 μL of Amplex UltraRed solution was added to each well, and the fluorescence was monitored with a CLARIOstar microplate reader (BMG Labtech) (λex = 530 nm and λem = 590 nm).

[3] = system: biotinylated anti-MPA Fab antibody; test: Bioluminescent bead-based competitive immunoassay with A2-NanoLuc / NanoLuc-A2 tracer; assay type: binding; conditions: for Cross-reactivity: IC50 for MPA divided by the IC50 of the interferent
Method: as §1
The matrix effect was tested in the presence of different dilutions of the ultrafiltered serum samples [1/2, 1/6, and 1/8, (v/v)], treated following a previously described procedure,[11] in PBST. […] Therefore, such dilution was used for further experiments.

[4] = system: anti-MPA; test: Bead-based competitive immunoassay with synthetic biotinylated peptide A2; assay type: binding
[5] = serum; cited from earlier work
Excerpt: Mycophenolic acid (MPA) is a mycotoxin produced by Penicillium fungi, and it is widely used as an immunosuppressant drug to prevent organ rejection in transplanted patients.[1] Recently, it has also been tested as a chemotherapeutic agent as it inhibits the proliferation of cancer cells.[2] Due to the small therapeutic window that MPA has, it is very important to monitor correctly its levels inside the human body.[3] MPA is mainly found in the serum, but only 1% of the total MPA exists in the free form, which is the one responsible for its pharmacological activity.[3],[4] Therefore, the availa ...

[6] = system: anti-MPA Fab antibody; test: SPR (Biacore T200), 1:1 Langmuir kinetics, binding to immobilized anti-MPA Fab; conditions: for Dissociation rate constant kd: Biacore T200, CM5 chip, anti-MPA (14) Fab immobilized, anti-OTA Fab reference, 1x PBS-P, +25 °C, dissociation phase 5 min, averages (± SE), seven concentrations; for Binding to anti-MPA Fab surface: SPR, concentration-dependent responses
Excerpt: To compare the binding properties of the biotinylated cyclic peptide and MPA toward the anti-MPA antibody, label-free SPR technology was applied. In the binding experiments, previously identified, produced, and purified Fab antibodies recognizing either MPA or ochratoxin A were immobilized onto sensor chip surfaces.[22] The same experimental conditions were used to study the binding properties of cyclic peptide (A2) and MPA. The results are presented in Figures S3 and S4 and summarized in Table S1 (Supporting Information).
as §2, §3, §4
followed by stabilization period of 60s. All samples were analyzed in replicates. […]

[7] = human, in vivo
Method: Volunteers donated whole blood samples with permission from the Ethics Committee from Hospital Clínico Universitario de Valladolid, Spain (no. PI 21-2245). The blood samples were kept at 20 °C during transport and storage. The samples were treated following the procedure described previously (see the Supporting Information for details).[11]
100µL of a 0.1 µg mL−1 bi o -A2 solution were added to the neutravidin-functionalized beads
solution as described before. After a 30-min incubation and a similar washing step, 100 µL of a
solution containing 0.5µg mL −1 of anti-MPA and different concentrations of free MPA,
previously incubated during 10 min, were added to the beads and incubated for another 30 m in.
After washing, an anti-IgG-HRP antibody was added, incubated 30 min and washed thereafter.
Finally, 80 µL of Amplex UltraRed was added and the fluorescence was monitored as described
The optimized separation of the three metabolites was performed in gradient elution mode,
quantified using an internal standard (MPA-LuciferYellow) calibration model using a nine-point
calibration curve, with a concentration range (0.5–80 ng mL −1 for MPA; 50–15000ng mL−1 f or
MPAG and 12– 250ng mL−1 for Acyl-MPAG) for the three metabolites. […]
analyzed. Free MPA was analyzed in plasma samples after a 1:8 dilution in SuperBlock + 0.05% […]

[8] = system: anti-MPA; test: Plate-based phage ELISA, direct and competitive; assay type: binding
Method: The assay was carried out at room temperature (RT). The biotinylated anti-MPA (Supporting Information) [5 μg mL^–1 in the assay buffer (SuperBlock supplemented with 0.05% Tween-20); 100 μL per well] was immobilized on streptavidin-coated wells (30 min), followed by three-time washes with PBST. The wells were then blocked with 280 μL of assay buffer for 30 min and washed again three times with PBS. Then, the amplified phage stock (between 10^10 and 10^11 pfu mL^–1; 100 μL per well) was added to the wells in assay buffer and incubated for 1 h with slow shaking. After washing the wells as described above, the HRP-conjugated anti-M13 monoclonal antibody (1:5000 dilution in assay buffer; 100 μL per well) was added to the wells and incubated for 1 h. Finally, the plate was washed three times as described above and 100 μL of ABTS was added to the wells. After 5 min, absorbance at 405 nm was measured in a Varioskan plate reader (Thermo Scientific).
as §5

[9] = A2-NanoLuc bead-based bioluminescent assay, n = 3

Compound: COc1c(C)c2c(c(O)c1C/C=C(\C)CCC(=O)O)C(=O)OC2 [MPA, Mycophenolic acid]
- MPA detected in control samples ([1]; healthy controls H1–H3): no MPA was detected in the control samples
- MPA concentration levels by patient ([1]; transplanted patients T1–T5): patients T1 and T2 had the highest MPA concentration levels
- LOD (10% inhibition) ([2]; free MPA competing with phage clone A2 (10^11 pfu/mL), neutravidin beads with biotinylated anti-MPA, assay buffer, RT, 30 min): 0.69 ng mL^–1
- Dynamic range (20–80% inhibition) ([2]; phage clone A2 (10^11 pfu/mL), neutravidin beads): 1.0–4.1 ng mL^–1
- Dynamic range (20–80% inhibition) ([3]; A2-NanoLuc tracer, assay buffer, bioluminescence, n = 3): 0.64–14 ng mL^–1
- Matrix effect on dose response curve ([3]; PBST vs ultrafiltered serum diluted 1/8 (v/v), p > 0.05, n = 3): No significant differences
- LOD (10% inhibition) ([3]; free MPA competing with A2-NanoLuc (77 μg/mL) for biotinylated anti-MPA on streptavidin beads, assay buffer (SuperBlock + 0.05% Tween-20), RT, 30 min, bioluminescence 470 nm, n = 3): 0.26 ng mL^–1
- IC50 ([3]; free MPA competing with A2-NanoLuc (77 μg/mL) for biotinylated anti-MPA on streptavidin beads, assay buffer, RT, 30 min, bioluminescence 470 nm, logistic fit, n = 3): 2.9 ± 0.5 ng mL^–1
- Dynamic range (20–80% inhibition) ([4]; biotinylated A2 peptide (0.1 µg/mL) on neutravidin beads, anti-MPA 0.5 µg/mL, Amplex UltraRed fluorescence, n = 3): 2.4–60 ng mL^–1
- LOD (10% inhibition) ([4]; free MPA, biotinylated A2 peptide (0.1 µg/mL) on neutravidin beads, anti-MPA 0.5 µg/mL pre-incubated 10 min with MPA, 30 min, anti-IgG-HRP, Amplex UltraRed fluorescence, n = 3): 0.94 ng mL^–1
- Free form of total MPA [5]: 1%
- Dissociation rate constant kd [6]: 0.0741 ± 0.0004 s⁻¹
- Kd ([6]; MPA and anti-MPA Fab interaction, in agreement with previous SPR affinity in solution results, read-out: Affinity constant): ~40 nM
- Binding to anti-MPA Fab surface [6]: showed binding to the anti-MPA Fab antibody surface

Compound: COc1c(C)c2c(c(O[C@@H]3O[C@H](C(=O)O)[C@@H](O)[C@H](O)[C@H]3O)c1C/C=C(\C)CCC(=O)O)C(=O)OC2 [MPAG, mycophenolic acid glucuronide]
- Cross-reactivity [3, 9]: 0.03%
- MPAG level in samples vs biosensor [7]: below the limit of quantification of the biosensor

Compound: COc1c(C)c2c(c(O)c1C/C=C(\C)CCC(=O)O[C@@H]1O[C@H](C(=O)O)[C@@H](O)[C@H](O)[C@H]1O)C(=O)OC2 [acyl-MPAG, acyl-mycophenolic acid glucuronide]
- Cross-reactivity [3, 9]: 58%
- Behavior in the assay compared to MPA ([3]; cross-reactivity test, A2-NanoLuc bead-based bioluminescent assay): very similar behavior to MPA

Compound: C=CC[C@@H]1/C=C(\C)C[C@H](C)C[C@H](OC)[C@H]2O[C@@](O)(C(=O)C(=O)N3CCCC[C@H]3C(=O)O[C@H](/C(C)=C/[C@@H]3CC[C@@H](O)[C@H](OC)C3)[C@H](C)[C@@H](O)CC1=O)[C@H](C)C[C@@H]2OC [tacrolimus]
- Cross-reactivity [3, 9]: lower than 0.03%

Compound: A(CEGLYAHWC)GGGSK(Bio)-NH2 (disulfide) [Cyclic peptide (A2)]
- Competition with free MPA ([4]; synthetic biotinylated peptide, competitive neutravidin bead-based assay): competition at the nanomolar level
- Dissociation rate constant kd [6]: 0.583 ± 0.001 s⁻¹
- Binding to anti-MPA Fab surface [6]: showed binding to the anti-MPA Fab antibody surface
- Association / dissociation relative to MPA ([6]; compared to MPA–anti-MPA Fab antibody complex): slower association and faster dissociation

Compound: ACEGLYAHWC (disulfide 2-10 (inferred)) [A2, phage clone displaying […] with a disulfide bond between the two cysteines; MPA mimetic]
- Signal in competitive ELISA in the presence of free MPA ([8]; 100 ng/mL free MPA added with phage clone A2, data not shown): significant decrease in the signal
- Nonspecific binding ([8]; phage ELISA in the absence of anti-MPA): very low nonspecific binding
- Phage ELISA binding to anti-MPA ([8]; phage clone vs immobilized biotinylated anti-MPA, signal-to-background, ABTS, absorbance 405 nm): very high signal-to-background ratio; also recorded: high specificity toward anti-MPA

Compound: cyclosporin
- Cross-reactivity [3, 9]: lower than 0.03%
